“Also recorded” adds a separate entry of the source.
What was measured:
[1] = system: Colo320 DM ecDNA+ and Colo320 HSR ecDNA− cells; experiment: Sensitivity of Colo320 DM and Colo320 HSR to CHK1 inhibitors, seven days (FIG. 13); format: cell-based; settings: CHK2 or ATM inhibition
Method: The sensitivity of an ecDNA+ cell line (Colo320 DM) compared with an ecDNA− cell line (Colo320 HSR) to four structurally distinct CHK1 inhibitors was determined.

HeLa cells [2] = experiment: HeLa cell confluence by high-content microscopy over three weeks, with or without 100 nM methotrexate; format: cell-based; settings: for cell growth (cell confluence), agent alone / development of methotrexate resistance: three weeks; for cell growth (cell confluence), agent alone: 10 nM GDC-0575, 100 nM methotrexate, 300 nM-10 μM AZD6738; for development of methotrexate resistance: in combination with 100 nM methotrexate
Method: Cell confluence was measured via high-content microscopy over the time course.
HeLa cells were treated with a WEE1 inhibitor, 0.01-0.3 μM adavosertib alone, with 1 nM-100 nM PD0166285, with 100 nM methotrexate alone, or with a combination of 0.01-0.3 μM adavosertib and 100 nM methotrexate or a combination of 1 nM-100 nM PD0166285 and 100 nM methotrexate over the course of three weeks. Cell confluence was measured via high-content microscopy over the time course.
HeLa cells were treated with a PARG inhibitor, 3-100 μM PD00017273 with (FIG. 35 top panel) or without (FIG. 35 bottom panel) 100 nM methotrexate over the course of 3 weeks. Cell confluence was measured via high-content microscopy over the time course.
Cell confluence was measured via high-content microscopy over the time course. […] However.

[3] = system: Colo320 ecDNA+ and Colo320 ecDNA− cells; experiment: CellTiter-glo viability assay, 7 days, Colo320 ecDNA+ vs ecDNA−; format: cell-based
Method: (§1) Sensitivity of an ecDNA+ (Colo320 ecDNA+) and an ecDNA− (Colo320 ecDNA−) cell line models to WEE1 inhibition was determined by treating each with increasing concentrations of either adavosertib or PD0166285 over a 7 day period. Cell proliferation was determined using a MTS assay (FIG. 27, top panels), while viability was determined using CellTiter-glo assay (FIG. 27 bottom panels).
(§2) Cell proliferation was determined using a MTS assay (FIG. 36, top panels), while viability was determined using CellTiter-glo assay (FIG. 36, bottom panels).

[4] = system: Colo320 DM (ecDNA+) and Colo320 HSR (ecDNA−) cells; experiment: MTS cell proliferation assay, 7 days, Colo320 ecDNA+ vs ecDNA−; format: cell-based
Method: as §1, §2

[5] = system: panel of ecDNA+ cell lines; experiment: Two-week soft-agar 3D colony formation assay, adavosertib (FIG. 31); format: cell-based; settings: five-point dose range, two weeks
Method: FIG. 31 illustrates sensitivity of ecDNA+ cells to inhibition of WEE1 using adavosertib in a 3-dimensional colony formation assay conducted in soft-agar. A panel of ecDNA+ cell lines were interrogated in a two-week soft agar drug sensitivity assay. All lines were treated with a five-point dose range of adavosertib for two weeks and stained with crystal violet to quantify individual colony counts.

HeLa cells [6] = experiment: HeLa colony formation assay, resistance formation to methotrexate (FIG. 32); format: cell-based; settings: 10000 cells plated with methotrexate for 21 days, IC50, 1/3 IC50, or 1/9 IC50
[7] = system: KRASi resistant tumor cells cultured ex vivo; experiment: KRASi resistant tumor cells implanted into NOD-SCID mice, tumor growth; format: in vivo; settings: adagrasib 50 mg/kg orally once per day
From the text: KRASi resistant tumor cells cultured ex vivo from Example 5 were implanted into NOD-SCID mice. […] Mice were implanted with the KRAS-resistant tumor cells as above.

[8] = system: Colo320 ecDNA+ (COLO320 DM) and Colo320 ecDNA− (COLO320 HSR) cells; experiment: Sensitivity of Colo320 ecDNA+ and ecDNA− cells to RNR inhibitors (FIG. 12); format: cell-based; settings: for induction of replication stress marker, phosphorylation at serine positions 317 and 345 of CHK1: Colo320 DM and HSR cells
[9] = system: infigratinib-resistant SNU16 cells; experiment: Secondary resistance, cell growth of infigratinib-resistant SNU16 cells over 5 weeks; format: cell-based, human; settings: FIG. 26, 1 uM infigratinib, 1 uM erlotinib, 10 nM gemcitabine
Method: The infigratinib-resistant SNU16 cells (generated as shown in FIG. 25) were subdivided into six groups and each group of 1×10^6 cells was subjected to treatment with 1 uM infigratinib, 1 uM erlotinib, 10 nM gemcitabine, or 1 uM erlotinib+10 nM gemcitabine and the cell growth was recorded over 5 weeks. Each treatment arm was terminated once the cell number reached 5×10^6.

SNU16 cells = experiment: Long-term cell growth / resistance development in SNU16 cells; format: cell-based, human; settings: for cell growth / development of primary resistance: FIG. 25, 12 weeks, 1 uM infigratinib, 1 uM erlotinib, 10 nM gemcitabine; for cell growth / resistance formation: 9 weeks
Method: Each treatment arm was terminated once the cell number reached 5×10^6.
SNU16 cells were subdivided into five groups and each group of 1×10^6 cells was subjected to treatment with 1 μM infigratinib, 1 μM erlotinib, 1 μM infigratinib and 1 μM erlotinib, 0.1 μM adavosertib and cell growth was recorded over 9 weeks.
SNU16 cells were subdivided into five groups and each group of 1×10^6 cells was subjected to treatment with infigratinib, erlotinib, PD00017273, infigratinib and erlotinib, or infigratinib and PD00017273 and cell growth was recorded over 9 weeks.
SNU16 (CRL-5974) cell line was purchased from ATCC. SNU16 cells were grown in RPMI 1640 medium (Fisher Scientific) with 10% FBS and 100 U/ml penicillin/streptomycin (Fisher Scientific). For the resistance experiments, SNU16 cells were plated at 2 million per T75 flask and were treated with either 1 μM infigratinib (Selleck Chemicals), 1 μM erlotinib (Selleck Chemicals), 10 nM gemcitabine (Sigma Aldrich), or a combination. The media was changed and fresh drug was added at least once per week. The cells were counted over the span of several weeks to measure cell growth.

KRAS amplified ecDNA = experiment: KRAS ecDNA by FISH in metaphase spreads from ex vivo cultures of treated tumors; parameters: species or system murine
Method: ecDNA were measured in metaphase spreads prepared from ex vivo cultures established from tumors taken from the mice on day of sacrifice. ecDNA counts were determined using FISH for murine KRAS.
Metaphase spreads were prepared from metaphase arrested and fixed ex vivo cultures established from tumors taken from mice in treatment groups and ecDNA was visualized by FISH for murine KRAS.

[10] = system: ecDNA+ (Colo320 DM) and ecDNA− (Colo320 HSR) cells; experiment: DNA fiber analysis, replication fork speed; format: cell-based; settings: 16 hr treatment
Method: FIGS. 42A-42B show intrinsic replication fork dysfunction in ecDNA(+) cancer cells is further compromised by RNR inhibition relative to […]. […] The two cell models were then pulse-labeled with the thymidine analogues chlorodeoxyuridine (CldU) and iododeoxyuridine (IdU) for 30 min each (FIG. 42A). Cells were lysed, DNA fibers spread out and immunostained using specific antibodies against CldU and IdU. […] A difference of -0.13 kb/min in replication fork speed between ecDNA+ and […] treated with RNRi was observed. Statistical significance was calculated using nonparametric Kolmogorov-Smirnov test. FIGS. 43A-43B show intrinsic replication fork dysfunction in ecDNA+ cancer cells is further compromised by CHK1 inhibition relative to […]. […] The two cell models were then pulse-labeled with the thymidine analogues chlorodeoxyuridine (CldU) and iododeoxyuridine (IdU) for 30 min each (FIG. 43A). Cells were lysed, DNA fibers spread out and immunostained using specific antibodies against CldU and IdU.

[11] = system: CT26WT E3 G12C KRAS mutant tumor cells; experiment: Treatment of CT26WT E3 G12C KRAS mutant tumors in mice, tumor growth (Examples 3 and 4); format: in vivo; settings: adagrasib 50 mg/kg orally once per day
From the text: (§3) Mice were implanted with CT26WT E3 G12C KRAS mutant tumor cells.
as §3

[12] = system: ecDNA+ cell lines (SNU16, Colo320 DM, H716, and H2170) and ecDNA− cell lines (DLD1, Colo320 HSR, Lovo, and SW48); experiment: Two-week soft-agar 3D colony formation assay, gemcitabine (FIG. 5); format: cell-based; settings: five-point dose range, two weeks, colony counts
Method: A panel of ecDNA+ and ecDNA− cell lines were interrogated in a two-week soft-agar drug sensitivity assay. All lines were treated with a five-point dose range of gemcitabine for two weeks and stained with crystal violet (FIG. 5, top panel) to quantify individual colony counts by ImageJ analysis (plotted in FIG. 5, bottom panel).

CN(C)CCCOc1ccc(-c2ccc3ncc4c(c3c2)n(C2CCOCC2)c(=O)n4C)cn1 [AZD0156]
differential sensitivity between the two lines [1]: neither inhibiting CHK2 with CCT241533 nor inhibiting DDR target, ATM, with AZD0156 revealed any differential sensitivity

C[C@@H]1COCCN1c1cc(C2([S@](C)(=N)=O)CC2)nc(-c2cc[nH]c3nccc2-3)n1 [AZD6738]
cell growth (cell confluence), agent alone (HeLa cells [2]): did not affect HeLa cell growth | synthetic lethality with methotrexate (HeLa cells [2]; with 100 nM methotrexate, 3 weeks): synthetic lethality | sensitivity of Colo320 ecDNA+ compared with ecDNA− cells, viability changes [3]: enhanced sensitivity | sensitivity of Colo320 ecDNA+ compared with ecDNA− cells, proliferation changes [4]: enhanced sensitivity

COc1cc2nc(-c3cc(F)ccc3O)nc(N[C@@H]3CNC[C@H]3C(C)(C)O)c2cc1OC [CCT241533]
differential sensitivity between the two lines [1]: neither inhibiting CHK2 with CCT241533 nor inhibiting DDR target, ATM, with AZD0156 revealed any differential sensitivity

CCN(CC)CCOc1ccc(Nc2ncc3cc(-c4c(Cl)cccc4Cl)c(=O)n(C)c3n2)cc1 [PD0166285]
development of methotrexate resistance (HeLa cells [2]): abrogation of methotrexate resistance | sensitivity of Colo320 ecDNA+ compared with ecDNA− cells, viability changes [3]: enhanced sensitivity | sensitivity of Colo320 ecDNA+ compared with ecDNA− cells, proliferation changes [4]: enhanced sensitivity

C=CCn1c(=O)c2cnc(Nc3ccc(N4CCN(C)CC4)cc3)nc2n1-c1cccc(C(C)(C)O)n1 [adavosertib]
sensitivity, colony counts [5]: demonstrated sensitivity | development of methotrexate resistance (HeLa cells [2]): prevented development of methotrexate resistance | sensitivity of Colo320 ecDNA+ compared with ecDNA− cells, viability changes [3]: enhanced sensitivity | resistance formation to methotrexate (HeLa cells [6]): abrogation of resistance formation to methotrexate | tumor growth ([7]; from about 180 mm^3, adavosertib 60 mg/kg orally once per day, PD0166285 0.3 mg/kg ip once per day): inhibited tumor growth | sensitivity of Colo320 ecDNA+ compared with ecDNA− cells, proliferation changes [4]: enhanced sensitivity

Cc1ccc(F)c([C@@H](C)[C@H](NS(=O)(=O)c2ccc(Cl)cc2C(N)=O)c2n[nH]c(=O)o2)c1C [compound 1, 5-chloro-2-(n-((1S,2R)-2-(6-fluoro-2,3-dimethylphenyl)-1-(5-oxo-4,5-dihydro-1,3,4-oxadiazol-2-yl)propyl)sulfamoyl)benzamide]
induction of replication stress marker, phosphorylation at serine positions 317 and 345 of CHK1 [8]: induced the replication stress marker

C#Cc1cccc(Nc2ncnc3cc(OCCOC)c(OCCOC)cc23)c1 [erlotinib]
cell growth / development of secondary resistance [9]: delayed cell growth for the first two weeks, but the cells continued to grow quickly after that; also recorded: initially sensitive to EGFR inhibitor erlotinib but develop secondary resistance within three weeks | cell growth / development of primary resistance (SNU16 cells): no effect on cell growth on its own | cell growth / resistance formation (SNU16 cells; FIG. 30, 1 μM infigratinib, 1 μM erlotinib, 0.1 μM adavosertib): no effect on cell growth on its own | cell growth / resistance formation (SNU16 cells; FIG. 34): little to no effect on cell growth

Nc1ccn([C@@H]2O[C@H](CO)[C@@H](O)C2(F)F)c(=O)n1 [gemcitabine]
KRAS ecDNA level (KRAS amplified ecDNA; Example 3, tumors at day of sacrifice (D21 or D16)): no KRAS amplified ecDNA was seen | ecDNA copy number per metaphase spread where ecDNA present (KRAS amplified ecDNA; Example 4): 1-3 per metaphase spread | metaphase spreads with little to no ecDNA (KRAS amplified ecDNA; Example 4, treatment group 3): 78/95 | cell growth / development of secondary resistance [9]: delayed cell growth for the first two weeks, but the cells continued to grow quickly after that | induction of replication stress marker, phosphorylation at serine positions 317 and 345 of CHK1 [8]: induced the replication stress marker | difference in replication fork speed between treated ecDNA+ and ecDNA− cells [10]: −0.13 kb/min | tumor growth ([11]; Example 3, from average volume 350 mm^3, gemcitabine 10 mg/kg ip every other day or 120 mg/kg ip once per week): only KRASi (adagrasib) resulted in a significant delay in tumor growth | tumor growth ([11]; Example 4, gemcitabine 10 or 20 mg/kg ip every other day): substantial tumor growth | tumor growth ([7]; from 290 mm^3, gemcitabine 10 mg/kg ip every other day): inhibited tumor growth | cell growth / development of primary resistance (SNU16 cells): delayed cell growth for the first two weeks, but the cells continued to grow quickly after that | fold enhanced sensitivity of ecDNA+ cell lines compared with ecDNA− cell lines [12]: 5-10 fold

NC(=O)NO [hydroxyurea]
induction of replication stress marker, phosphorylation at serine positions 317 and 345 of CHK1 [8]: induced the replication stress marker | ecDNA copy number ([8]; ecDNA+ (Colo320 DM) cells, vs vehicle treated): markedly reduced

CN(Cc1cnc2nc(N)nc(N)c2n1)c1ccc(C(=O)N[C@@H](CCC(=O)O)C(=O)O)cc1 [methotrexate]
cell growth (cell confluence), agent alone (HeLa cells [2]): initially resulted in little to no cell growth, but after two weeks in culture, the cells began to develop resistance and cell growth resumed

COc1cccc(OCCCN)c1-c1cc(Nc2cnc(C#N)cn2)n[nH]1 [prexasertib]
difference in replication fork speed between treated ecDNA+ and ecDNA− cells [10]: −0.1 kb/min

Source: patent publication US11642345B2, “Replication stress pathway agent compositions and methods for treating cancer” (Boundless Bio, Inc., priority 2020, dated 2023)
